Laboratory results reported in patent US4398023A, “β-1,3-Glucanpolyol, process for preparation thereof, and utilization thereof” (Meito Sangyo Kabushiki Kaisha, priority 1979, dated 1983).

Columns and labels:
[1] = Intrinsic viscosity [.eta.]; format: physicochemical; settings: 25° C., aqueous solution; concentration in g/100 ml
Description: The intrinsic viscosity, as used in the present invention, is [.eta.] defined by the following equation. [formula] wherein .eta.sp =(.eta.-.eta.o)/.eta.o =/.eta.o -1 in which .eta. is the viscosity (at 25° C. in aqueous solution) of the solution and .eta.o is the viscosity of the solvent; and C is the concentration in g/100 ml.

Sarcoma 180 [2] = assay: Antitumor activity test using Sarcoma 180 in C3H/He mice; format: in vivo; settings: intraperitoneal, once a day for 10 days, fifth week
Description: (§1) Starting 24 hours after the transplantation, the glucanpolyol of this invention was intraperitoneally administered once a day for 10 days. In the fifth week, the tumor was enucleated and its weight was compared with that in non-treated groups. The tumor inhibition ratio was calculated, and the number of tumors which completely regressed was observed.
(§2) The tumor inhibition ratio was calculated in accordance with the following equation. [formula] wherein C is the average weight of tumor in non-treated groups (10 mice per group),
(§3) T is the average weight of tumor in treated groups (10 mice per group).
(4) An antitumor activity test using Sarcoma 180 in C3H/He mice

Meth-A = assay: Antitumor activity test using Meth-A in Balb/c mice; format: in vivo; settings: intraperitoneal, once a day for 10 days, fifth week
Description: as §1, §2, §3
(3) An antitumor activity test using Meth-A in Balb/c mice

ICR-JCL mice = assay: Toxicity (LD50) on ICR-JCL mice; format: in vivo; settings: ICR-JCL mice
Excerpt: The toxicity of the β-1,3-glucanpolyol of this invention is very low, and the LD50 values of the products obtained in Examples 1, 4 and 5, for example, on ICR-JCL mice are as shown in Table 10.

CCM-adenocarcinoma = assay: Antitumor activity test using CCM-adenocarcinoma in ICR-JCL mice; format: in vivo; settings: 1 mg/kg/day, intraperitoneal, once a day for 10 days, fifth week
Description: as §1, with “The ascites cells of Sarcoma 180 were inoculated peritoneally in ICR-JCL mice having a body weight of about 23 g. […] Starting” for “Starting”
as §2, §3
(8) An antitumor activity test using CCM-adenocarcinoma in ICR-JCL mice
Six million CCM-adenocarcinoma cells were transplanted into the subcutaneous portion of the right inguinal part of ICR-JCL mice having a body weight of about 23 g, and then the same operation as in (1) above was performed.

Sarcoma 180 [3] = assay: Antitumor activity test using Sarcoma 180 in C57 BL/6 mice; format: in vivo; settings: 1 mg/kg/day, intraperitoneal, once a day for 10 days, fifth week
Description: as §1, with “The ascites cells of Sarcoma 180 were inoculated peritoneally in ICR-JCL mice having a body weight of about 23 g. […] Starting” for “Starting”
as §2, §3
(6) An antitumor activity test using Sarcoma 180 in C57 BL/6 mice
Six million Sarcoma 180 cells were transplanted into the subcutaneous portion of the right inguinal part of the C57 BL/6 mice having a body weight of about 20 g, and then the same operation as in (1) above was performed.

[4] = test system: NTF-reticulum cell sarcoma; assay: Antitumor activity test using NTF-reticulum cell sarcoma in ICR-JCL mice; format: in vivo; settings: 1 mg/kg/day, intraperitoneal, once a day for 10 days, fifth week
Description: as §1, with “The ascites cells of Sarcoma 180 were inoculated peritoneally in ICR-JCL mice having a body weight of about 23 g. […] Starting” for “Starting”
as §2, §3
(9) An antitumor activity test using NTF-reticulum cell sarcoma in ICR-JCL mice
Six million NFT-reticulum cell sarcoma cells were transplanted into the subcutaneous portion of the right inguinal part of ICR-JCL mice having a body weight of about 23 g, and then, the same operation as in (1) above was performed.

Sarcoma 180 [5] = assay: Antitumor activity test using Sarcoma 180 in Balb/c mice; format: in vivo; settings: 1 mg/kg/day, intraperitoneal, once a day for 10 days, fifth week
Description: as §1, with “The ascites cells of Sarcoma 180 were inoculated peritoneally in ICR-JCL mice having a body weight of about 23 g. […] Starting” for “Starting”
as §2, §3
(5) An antitumor activity test using Sarcoma 180 in Balb/c mice
Six million Sarcoma 180 cells were transplanted into the subcutaneous portion of the right inguinal part of the Balb/c mice having a body weight of about 23 g, and then, the same operation as in (1 ) above was performed.

Sarcoma 180 [6] = assay: Antitumor activity test using Sarcoma 180 in ICR-JCL mice; format: in vivo; settings: intraperitoneal, once a day for 10 days, fifth week
Description: (1) An antitumor activity test using Sarcoma 180 in ICR-JCL mice
as §1, §2, §3

Ehrlich Carcinoma = assay: Antitumor activity test using Ehrlich Carcinoma in ICR-JCL mice; format: in vivo; settings: intraperitoneal, once a day for 10 days, fifth week
Description: as §1, §2, §3
(2) An antitumor activity test using Ehrlich Carcinoma in ICR-JCL mice

Sarcoma 180 [7] = assay: Antitumor activity test using Sarcoma 180 in ddY mice; format: in vivo; settings: 1 mg/kg/day, intraperitoneal, once a day for 10 days, fifth week
Description: as §1, with “The ascites cells of Sarcoma 180 were inoculated peritoneally in ICR-JCL mice having a body weight of about 23 g. […] Starting” for “Starting”
as §2, §3
(7) An antitumor activity test using Sarcoma 180 in ddY mice
Six million Sarcoma 180 cells were transplanted into the subcutaneous portion of the right inguinal part of ddY mice having a body weight of about 23 g, and then, the same operation as in (1) above was performed.

Q: With β-1,3-glucanpolyol [Example 7] as the substance, how does the Intrinsic viscosity [.eta.] [1] read?
A: 8.55 dL/g

Q: Which Intrinsic viscosity [.eta.] [1] does the source give for β-1,3-glucanpolyol [Example 1] here?
A: 6.21 dL/g

Q: What about the “Average weight of tumor” value (Sarcoma 180 [2]; 1 mg/kg/day) of the same substance?
A: 5.14 g

Q: What about the Complete regression (Sarcoma 180 [2]; 1 mg/kg/day) of the same substance?
A: 0/10

Q: And the Tumor inhibition ratio (Sarcoma 180 [2]; 1 mg/kg/day)?
A: 60.2%

Q: What about the “Average weight of tumor” value (Sarcoma 180 [2]; 5 mg/kg/day) of the same substance?
A: 2.14 g

Q: What about the Complete regression (Sarcoma 180 [2]; 5 mg/kg/day) of the same substance?
A: 6/10

Q: And the Tumor inhibition ratio (Sarcoma 180 [2]; 5 mg/kg/day)?
A: 83.4%

Q: And the “Average weight of tumor” value (Sarcoma 180 [2]; 20 mg/kg/day)?
A: 4.62 g

Q: And the Complete regression (Sarcoma 180 [2]; 20 mg/kg/day)?
A: 1/10

Q: And the Tumor inhibition ratio (Sarcoma 180 [2]; 20 mg/kg/day)?
A: 64.2%

Q: What about the “Average weight of tumor” value (Meth-A; 1 mg/kg/day) of the same substance?
A: 7.74 g

Q: What about the Complete regression (Meth-A; 1 mg/kg/day) of the same substance?
A: 0/10

Q: What about the Tumor inhibition ratio (Meth-A; 1 mg/kg/day) of the same substance?
A: 42.1%

Q: What about the “Average weight of tumor” value (Meth-A; 5 mg/kg/day) of the same substance?
A: 5.57 g

Q: What about the Complete regression (Meth-A; 5 mg/kg/day) of the same substance?
A: 0/10

Q: And the Tumor inhibition ratio (Meth-A; 5 mg/kg/day)?
A: 58.3%

Q: And the “Average weight of tumor” value (Meth-A; 20 mg/kg/day)?
A: 9.25 g

Q: What about the Complete regression (Meth-A; 20 mg/kg/day) of the same substance?
A: 0/10

Q: And the Tumor inhibition ratio (Meth-A; 20 mg/kg/day)?
A: 30.8%

Q: What about the “LD50 Intraperitoneal administration” value (ICR-JCL mice; intraperitoneal) of the same substance?
A: above 2 g/kg

Q: And the “LD50 Intravenous administration” value (ICR-JCL mice; intravenous)?
A: above 0.5 g/kg

Q: And the “LD50 Oral administration” value (ICR-JCL mice; oral)?
A: above 20 g/kg

Q: What about the “Average weight of tumor” value (CCM-adenocarcinoma) of the same substance?
A: 0.52 g

Q: And the Complete regression (CCM-adenocarcinoma)?
A: 7/10

Q: What about the Tumor inhibition ratio (CCM-adenocarcinoma) of the same substance?
A: 95.7%

Q: And the “Average weight of tumor” value (Sarcoma 180 [3])?
A: 0.15 g

Q: And the Complete regression (Sarcoma 180 [3])?
A: 8/10

Q: What about the Tumor inhibition ratio (Sarcoma 180 [3]) of the same substance?
A: 95.8%

Q: What about the “Average weight of tumor” value [4] of the same substance?
A: 0.51 g

Q: And the Complete regression [4]?
A: 8/10

Q: What about the Tumor inhibition ratio [4] of the same substance?
A: 91.1%

Q: And the “Average weight of tumor” value (Sarcoma 180 [5])?
A: 0.08 g

Q: And the Complete regression (Sarcoma 180 [5])?
A: 9/10

Q: What about the Tumor inhibition ratio (Sarcoma 180 [5]) of the same substance?
A: 97.8%

Q: What about the “Average weight of tumor” value (Sarcoma 180 [6]; 1 mg/kg/day) of the same substance?
A: 0.28 g

Q: What about the Complete regression (Sarcoma 180 [6]; 1 mg/kg/day) of the same substance?
A: 9/10

Q: And the Tumor inhibition ratio (Sarcoma 180 [6]; 1 mg/kg/day)?
A: 97.5%

Q: What about the “Average weight of tumor” value (Sarcoma 180 [6]; 5 mg/kg/day) of the same substance?
A: 0 g

Q: And the Complete regression (Sarcoma 180 [6]; 5 mg/kg/day)?
A: 10/10

Q: What about the Tumor inhibition ratio (Sarcoma 180 [6]; 5 mg/kg/day) of the same substance?
A: 100%

Q: And the “Average weight of tumor” value (Sarcoma 180 [6]; 10 mg/kg/day)?
A: 0.17 g

Q: And the Complete regression (Sarcoma 180 [6]; 10 mg/kg/day)?
A: 9/10

Q: And the Tumor inhibition ratio (Sarcoma 180 [6]; 10 mg/kg/day)?
A: 98.5%

Q: And the “Average weight of tumor” value (Ehrlich Carcinoma; 1 mg/kg/day)?
A: 0 g

Q: What about the Complete regression (Ehrlich Carcinoma; 1 mg/kg/day) of the same substance?
A: 10/10

Q: What about the Tumor inhibition ratio (Ehrlich Carcinoma; 1 mg/kg/day) of the same substance?
A: 100%

Q: And the “Average weight of tumor” value (Ehrlich Carcinoma; 5 mg/kg/day)?
A: 0 g

Q: And the Complete regression (Ehrlich Carcinoma; 5 mg/kg/day)?
A: 10/10

Q: What about the Tumor inhibition ratio (Ehrlich Carcinoma; 5 mg/kg/day) of the same substance?
A: 100%

Q: What about the “Average weight of tumor” value (Ehrlich Carcinoma; 20 mg/kg/day) of the same substance?
A: 0.31 g

Q: What about the Complete regression (Ehrlich Carcinoma; 20 mg/kg/day) of the same substance?
A: 7/10

Q: What about the Tumor inhibition ratio (Ehrlich Carcinoma; 20 mg/kg/day) of the same substance?
A: 97.9%

Q: What about the “Average weight of tumor” value (Sarcoma 180 [7]) of the same substance?
A: 0.39 g

Q: And the Complete regression (Sarcoma 180 [7])?
A: 7/10

Q: What about the Tumor inhibition ratio (Sarcoma 180 [7]) of the same substance?
A: 96.5%
